Results: patent US20220313702A1, “OXATHIAZIN COMPOUNDS FOR INHIBITING GAPDH” (Geistlich Pharma AG, priority 2019, published 2022)
Like-named read-outs stand apart in the source and are kept apart here.

Tests used:
[1] = test system: PancTul pancreatic cancer cell line; assay: fluorescent ROS detection assay, PancTul; assay type: cell-based
Experimental: (§1) FIG. 2: Formation of ROS: The effect of treatment with the indicated concentrations of GP-2250 on the formation of ROS was tested in two pancreatic cancer cell lines a) PancTul and b) BxPC3, using a fluorescent ROS detection assay (ROS/Superoxide Detection Assay Kit, Abcam (ab139476)) following incubation with GP-2250 for 90 min at 37° C. Negative controls (NC+NAC) contained the ROS inhibitor which is part of the Assay Kit plus N-acetylcysteine (NAC; 5 mM). Untreated control (U). Data are presented as mean+/−S.D. Significance levels calculated in comparison to untreated controls (U). * p<0.05, ** p<0.01, *** p<0.001.
(§2) The effects of treatment with various concentrations of GP-2250 on the formation of ROS was tested in two pancreatic cancer cell lines a) PancTul and b) BxPC3 as shown in FIG. 2. […] The BxPC3 cell line was more sensitive to forming ROS than Panc Tul. The rather high concentrations of GP-2250 which are required for the formation of ROS (equal or higher than 500 uM) are most likely due to the short incubation time of 90 minutes in this cellular assay. A higher potency of GP-2250 would be expected at longer incubation times.
(§3) Untreated control (U). Data are presented as mean+/−S.D. Significance levels calculated in comparison to untreated controls (U). * p<0.05, ** p<0.01, *** p<0.001.

[2] = test system: Bo80 pancreatic primary cancer cell line
Experimental: (§11) Controls corresponded to cells cultured for 8 weeks without drug treatment (dark columns).
(§12) Secondary resistance to 2250 was tested to imitate the repetitive bolus administration of the drug over a period of up to 8 weeks. Gemcitabine was used as comparator drug. A potential secondary resistance was expected to manifest itself in a decreased ability of either drug to impair cell viability. The study was performed with 3 pancreatic tumor cell lines, AsPC-1, PancTul and Bo80, the latter being a primary cell line derived from a pancreatic cancer patient. The cells were treated once a week for 24 hours with 2250 or gemcitabine at a dose which destroyed 80-90% of the cells. Subsequently, the media were exchanged and the cells were allowed to regrow in the absence of drug for 6 days.
(§13) This weekly treatment cycle of cell killing and regrowth was repeated for both drugs for 4 weeks, 6 weeks and 8 weeks. Untreated cultures of 4, 6 and 8 weeks were used as controls. Cell viability was tested with the BrdU assay or the MTT assay at 2 hour, 24 hour, and 6 days in every treatment cycle for 4, 6 and 8 weeks.

[3] = test system: BxPC3 cell line; assay: ATP luminescent detection kit, BxPC3; assay type: cell-based
Experimental: (§4) FIG. 4: Decrease of ATP in BxPC3 cell line: Effect of treatment with the indicated concentrations of GP-2250 on the amount of ATP (dark column) in comparison to the cell viability (light column) after a) 3 h, b) 6 h and c) 24 h incubation at 37° C. The strong decrease of ATP reflects the impairment of the energy metabolism by GP-2250. The decrease of ATP precedes the decrease in cell viability and is therefore not caused by the impairment of cell viability. ATP was measured with a luminescent detection kit (Abcam ab113849), cell viability with the MTT test (Sigma M5655). Data are given as % change versus untreated control (NC), presented as mean+/−S.D. Significance levels in comparison to NC. * p<0.05, ** p<0.01, ***p<0.001.
(§5) The level of ATP in a tumor cell is taken as a measure of the impact of GP-2250 on its energy metabolism. […] The decrease of ATP is already apparent after 3 h with PancTul and at 6 h with the less sensitive BxPC3 at 250 uM. It is this concentration which causes partial inhibition of GAPD (FIG. 1) and thereby links GAPD inhibition to the decrease of ATP, which in itself is a sufficient signal for the induction of apoptosis. […]
(§6) The strong decrease of ATP reflects the impairment of the energy metabolism by GP-2250. […] ATP was measured with a luminescent detection kit (Abcam ab113849), cell viability with the MTT test (Sigma M5655). […]

[4] = test system: BxPC3 cell line; assay: cell viability MTT test, BxPC3; assay type: cell-based
Experimental: as §4
(§7) The strong decrease of ATP reflects the impairment of the energy metabolism by GP-2250. The decrease of ATP precedes the decrease in cell viability and is therefore not caused by the impairment of cell viability. ATP was measured with a luminescent detection kit (Abcam ab113849), cell viability with the MTT test (Sigma M5655). Data are given as % change versus untreated control (NC), presented as mean+/−S.D. Significance levels in comparison to NC. * p<0.05, ** p<0.01, ***p<0.001.

[5] = test system: primary cell line derived from human pancreatic cancer (Bo80); assay: cell viability MTT assay, Bo80 primary pancreatic cancer cells; assay type: cell-based; conditions: 24 h at 37° C.
Experimental: FIG. 6: Synergy between GP-2250 and Gemcitabine: Cell viability was tested in a primary cell line derived from human pancreatic cancer (Bo80). […] When combined, a striking synergy was observed. The number of viable cells was reduced by 70-75%. Cell viability was tested colorimetically using the MTT assay. […] Reduction of chemotherapy drug-related toxicity can be achieved in vitro using the combinations with GP-2250 while maintaining high efficacy. The combination of GP-2250 with gemcitabine was therefore tested in mouse models of patient-derived xenografts to assess the therapeutic potential of this drug combination in vivo (see FIGS. 12-15; FIG. 18). […] When combined, a striking synergy was observed. The number of viable cells was reduced by 70-75%. Cell viability was tested colorimetically using the MTT assay.

[6] = biological target: recombinant GAPDH (rGAPDH) (Homo sapiens, UniProt P04406); assay: Glyceraldehyde-3-phosphate Dehydrogenase Activity Assay Kit with recombinant GAPDH; assay type: biochemical
Experimental: FIG. 1: Inhibition of GAPDH enzyme activity: Effect of treatment with GP-2250 (100 uM and 250 uM) on the activity of recombinant GAPDH (rGAPDH) was tested with the Glyceraldehyde-3-phosphate Dehydrogenase Activity Assay Kit (Abcam ab204732) following incubation for up to 60 min at 37° C. The rGAPDH activity is inhibited dose- and time-dependently by 100 uM and 250 uM GP-2250 up to 40% compared to the untreated control. […] The GP-2250 curves are the measured data, not normalized to controls. Data are presented as mean+/−S.D.
The incubation time may be critical as it is a cell-free assay. Specific doses required for a half-maximal or full inhibition of GAPDH are tested in vitro and in vivo in rodents. These in vitro and in vivo data provide a target-related measure of the dose required to inhibit the GAPDH in tissue, e.g., cancer tissue, to various degrees, which is a more direct measure of the impact of the compounds of the present disclosure in contrast to cellular assays such as induction of apoptosis or ROS production.
GAPDH is the rate limiting glycolytic enzyme in cells operating under conditions of aerobic glycolysis, such as tumor cells. Partial inhibition is therefore expected to impair the energy metabolism of tumor cells. This is in contrast to normal cells. […] The GP-2250 curves are the measured data, not normalized to controls. […]

[7] = test system: PancTul cell line; assay: ATP luminescent detection kit, PancTul; assay type: cell-based
Experimental: as §4, with “3:” for “4:”, “PancTul” for “BxPC3”
as §5, §6

[8] = test system: neuroendocrine cell line QGP-1
Experimental: (§14) Neuroendocrine tumors were tested in vitro using the neuroendocrine cell line QGP-1 and in vivo using mouse models with a QGP-1 cell xenograft and a Bo99 patient-derived pancreatic cancer tissue graft.

[9] = test system: PancTul cell line; assay: cell viability MTT test, PancTul; assay type: cell-based
Experimental: as §4, with “3:” for “4:”, “PancTul” for “BxPC3”
as §7

[10] = test system: PancTul pancreatic cancer cell line; assay: test of secondary resistance, PancTul; assay type: cell-based; conditions: 6 weekly treatment cycles, BrdU assay
Excerpt: FIG. 9: Test of secondary resistance.
Gemcitabine was used as comparator drug.

[11] = test system: BxPC3 pancreatic cancer cell line; assay: fluorescent ROS detection assay, BxPC3; assay type: cell-based
Experimental: as §1, §2, §3

[12] = test system: Bax; assay: Western blot of Bax expression in PancTul cells; assay type: cell-based; conditions: 200 μM, 0 h, 6 h, 12 h and 24 h, α-tubulin as control
Experimental: (§8) FIG. 5: Regulation of oncoproteins Bax and Bcl-2 expression: Effect of treatment with 200 μM GP-2250 for 0 h, 6 h, 12 h and 24 h on the expression of the oncoproteins a) Bax and b) Bcl-2 was tested in PancTul cells by Western blots with α-tubulin as control. The expression of the pro-apoptotic protein Bax was increased whereas the expression of the anti-apoptotic Bcl-2 was decreased over time of incubation with GP-2250.
(§9) Apoptotic pathways are triggered by a decrease of ATP or an increase of ROS. They result in a shift of the equilibrium between the pro-apoptotic (death) protein Bax and the anti-apoptotic (survival) protein Bcl-2. The mitochondria are destabilized and the apoptotic caspase cascade finalizes the apoptotic cell suicide. GP-2250 (200 μM) increased the expression of Bax and decrease the expression of BCl-2 with increasing incubation times as shown in the Western blots (FIG. 5). […] In addition, the concentration of GP-2250 which is sufficient to change the Bax/Bcl-2 ratio (200 uM) corresponds to that for partial GAPDH inhibition (250 uM) (FIG. 1). This finding links GAPDH inhibition to the induction of apoptosis.
(§10) The expression of the pro-apoptotic protein Bax was increased whereas the expression of the anti-apoptotic Bcl-2 was decreased over time of incubation with GP-2250.

[13] = test system: AsPC-1 pancreatic cancer cell line
Experimental: (§15) Following 4 weekly cycles of cytotoxic treatment and regrowth (see text), the cytotoxic potency of GP-2250 (FIG. 8A) and of gemcitabine (FIG. 8B) was tested with the BrdU and MTT assay respectively in the AsPC-1 pancreatic cancer cell line (light columns). Controls corresponded to cells cultured for 4 weeks without drug treatment (dark columns).
as §12, §13

[14] = test system: Bcl-2; assay: Western blot of Bcl-2 expression in PancTul cells; assay type: cell-based; conditions: 200 μM, 0 h, 6 h, 12 h and 24 h, α-tubulin as control
Experimental: as §8, §9, §10

[15] = test system: Chemotherapy-resistant stem cells from advanced Stage 3 and 4 pancreatic cancer human patients; assay: chemotherapy-resistant stem cells from pancreatic cancer patients; assay type: cell-based; conditions: several concentrations
[16] = test system: AsPC-1 pancreatic cancer cell line; assay: test of secondary resistance, AsPC-1; conditions: AsPC-1, 4 weekly treatment cycles, MTT assay, vs untreated 4-week cultures
Experimental: as §15, §12, §13

[17] = test system: neuroendocrine cell line QGP-1; assay: QGP-1 tumor cell viability in vitro
Experimental: as §14

[18] = test system: Bo80 pancreatic primary cancer cell line; assay: test of secondary resistance, Bo80; conditions: Bo80, 8 weekly treatment cycles, BrdU assay, vs untreated 8-week cultures
Experimental: as §11, §12, §13

[19] = biological target: GAPDH (Homo sapiens, UniProt P04406); assay: interactions with GAPDH (covalent labeling); assay type: biochemical
Experimental: Various oxathiazine-like compounds of the present disclosure are synthesized and are assayed for interactions with GAPDH. Isethionic acid amide and methylene glycol were identified as hydrolytic products. A reactive transient reactive intermediate is isethionic acid hydroxymethylamide. […] The covalently labeled enzyme is purified and reactive intermediates are identified using various analytical methods including mass spectrometry of the labeled peptide is elucidated.

Chain of recombinant GAPDH (rGAPDH) (P04406 whole entry): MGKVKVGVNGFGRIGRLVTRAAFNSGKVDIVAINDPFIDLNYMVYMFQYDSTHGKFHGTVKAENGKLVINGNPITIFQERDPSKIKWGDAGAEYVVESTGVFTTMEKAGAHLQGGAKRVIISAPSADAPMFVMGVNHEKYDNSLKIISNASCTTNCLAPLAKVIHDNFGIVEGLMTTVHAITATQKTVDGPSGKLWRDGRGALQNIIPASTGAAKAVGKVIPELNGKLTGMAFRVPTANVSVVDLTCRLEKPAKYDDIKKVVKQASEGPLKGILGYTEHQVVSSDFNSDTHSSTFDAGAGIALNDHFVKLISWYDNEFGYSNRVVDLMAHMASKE
Chain of GAPDH (P04406 whole entry): as above

## O=S1(=O)CCOCN1 [GP-2250, Tetrahydro1,4,5-oxathiazin-4-dioxide]
[1]; 90 min at 37° C.
  increase of ROS: concentration dependent
[1]; incubation time of 90 minutes
  concentrations required for the formation of ROS: ≥ 500 µM
[2]
  cytotoxic potency after repeated treatment (secondary resistance): remained unchanged
[3]; BxPC3, 250 uM
  incubation time at which decrease of ATP is apparent: 6 h
[3]; BxPC3, 3 h, 6 h, 24 h at 37° C.
  ATP amount: decreases depending on the concentration of GP-2250 and the incubation time
[4]
  impairment of cell viability (MTT) relative to ATP decrease: required higher concentrations than those required to decrease ATP
[5]; GP-2250 200 uM
  cell viability, drug alone: inactive per se
[6]; 100 uM and 250 uM GP-2250, incubation up to 60 min at 37° C., compared to untreated control, dose- and time-dependent
  inhibition of rGAPDH activity: up to 40%
[6]; cell-free assay
  inhibition of recombinant GAPDH: directly inhibited
[7]; 250 uM
  incubation time at which decrease of ATP is apparent: 3 h
[7]; 3 h, 6 h, 24 h at 37° C.
  ATP amount: decreases depending on the concentration of GP-2250 and the incubation time
[8]
  cytotoxic effect in QGP-1 cells, monotherapy: concentration-dependent cytotoxic effect
[9]
  impairment of cell viability (MTT) relative to ATP decrease: required higher concentrations than those required to decrease ATP
[10]
  cytotoxic potency after repeated treatment (secondary resistance): remained unchanged
[11]; BxPC3, 90 min at 37° C.
  increase of ROS: concentration dependent
[11]; BxPC3, incubation time of 90 minutes
  concentrations required for the formation of ROS: ≥ 500 µM
[12]
  expression of Bax: increased
[13]
  cytotoxic potency after repeated treatment (secondary resistance): remained unchanged
[14]
  expression of Bcl-2: decreased
[15]
  effect on chemotherapy-resistant stem cells: some effect at higher concentrations

## Nc1ccn([C@@H]2O[C@H](CO)[C@@H](O)C2(F)F)c(=O)n1 [gemcitabine]
[16]
  cytotoxic potency after repeated treatment (secondary resistance): reduced cytotoxic potency
[17]
  cytotoxic effect in QGP-1 cells, monotherapy: concentration-dependent cytotoxic effect
[5]; Gemcitabine 100 uM or 1000 uM
  cell viability, drug alone: inactive per se
[18]
  cytotoxic potency after repeated treatment (secondary resistance): reduced cytotoxic potency
[15]
  effect on chemotherapy-resistant stem cells: minimal effect at all tested concentrations

## O=S(=O)(CCO)NCO [isethionic acid hydroxymethylamide]
[19]
  interaction with the reactive cysteine-SH in the active center of GAPDH: inactivates the enzyme
